PMC9430628 (Microbiology Spectrum, 2022)

Experiments:
[1] = tested on: rNA (N-acyl-L-amino acid amidohydrolase NA); assay: HPLC of OTalpha formed, Michaelis-Menten nonlinear fit; format: biochemical, Stenotrophomonas sp. CW117; conditions: PBS pH 7.2, 42 °C, 6 h; OTA 15-65 μg/L
[2] = tested on: T1, rADH3 (amidohydrolase ADH3); conditions: conditions not given here (as in the authors' earlier paper); cited from earlier work
T1 construct: gene H7691_12935

In the case of `C[C@@H]1Cc2c(Cl)cc(C(=O)N[C@@H](Cc3ccccc3)C(=O)O)c(O)c2C(=O)O1` [Ochratoxin A], the Km [1] is given as 3.8 µM and the Km [2] is given as 0.039 µM.
